Results reported in ChEMBL document CHEMBL4270648, “Molecular design, synthesis and biological evaluation of cage compound-based inhibitors of hepatitis C virus p7 ion channels” (Eur J Med Chem, 2018).

What was measured:
[1] = Selectivity index, ratio of CC50 for calf heart cells to IC50 for BVDV VK-1 infected in calf heart cells; type: toxicity, cell-based; conditions: cattle, read-out: Ratio CC50/IC50
[2] = Cytotoxicity against calf heart cells assessed as reduction in cell viability by colorimetric method; type: cell-based, Bos taurus; conditions: cattle
[3] = Inhibition of p7 ion channel in BVDV VK-1 infected in calf heart cells assessed as reduction in viral growth by colorimetric method; type: cell-based, Bovine viral diarrhea virus 1; conditions: Bovine viral diarrhea virus isolates and strains

| Compound | selectivity ratio [1] | CC50 [2] [µM] | IC50 [3] [µM] |
| --- | --- | --- | --- |
| CC(=O)NC(C)C12CC3CC(CC(C(=O)O)(C3)C1)C2 (centres undefined) | > 13.1 | > 377 | 28.9 |
| C[C@H](O)[C@H](N)C12CC3CC(CC(C3)C1)C2 | > 4 | > 407 | 103 |
| CN(C)c1cc[n+](C23CC4CC(CC(C4)C2)C3)cc1 | 8.1 | 199 | 24.4 |
| O=C1CCC(C23CC4CC(CC(C4)C2)C3)=NN1c1ccccc1 | > 450 | 235 | < 0.52 |
| CSc1ncn(C2(c3ccccc3O)C3CC4CC(C3)CC2C4)n1 (centres undefined) | 5.2 | 119 | 22.9 |
| O=C(O)CC12CC3CC(O)(C1)CC(CC(=O)O)(C3)C2 | > 3.2 | > 373 | 116 |
| CC1(c2ccccc2)CCCN(CCC23CC4CC(CC(C4)C2)C3)C1 (centres undefined) | 28.7 | 86.7 | 3.02 |
| O=S1(=O)OC23CC4CC(CC(C4)C2)C[C@H]3[C@@H]1CN1CCCCC1 | > 1.8 | > 295 | 163 |
| c1ccc2[nH]cc(C34CC5CC(CC(C5)C3)C4)cc[nH]c2c1 | 6.3 | 128 | 20.3 |
| CC12CC3(N)CC(CC(=O)O)(C1)CC(CC(=O)O)(C2)C3 | > 2.7 | > 315 | 118 |
| C[C@@H]1N[C@H]1C12CC3CC(CC(C3)C1)C2 | 1.4 | 105 | 76.7 |
| O=c1ccn(C23CC4CC(CC(C4)C2)C3)cc1 | 4.5 | 158 | 35.3 |
| c1ccc2nc3c(nc2c1)C1CC2CC(C1)CC3C2 | > 50.8 | > 400 | 7.87 |
| O=C(C[n+]1cccc2ccccc21)C12CC3CC(CC(C3)C1)C2 | 8.7 | 133 | 15.2 |
| Cc1cccc[n+]1CCC12CC3CC(CC(C3)C1)C2 | 32 | 297 | 9.3 |
| CCC1CC2CC3CC(C2)CC1(O)C3 (centres undefined) | 95.2 | 403 | 4.24 |
| Oc1noc2c1C1CC3CC(CC2C3)C1 | > 82 | > 487 | 5.94 |
| CC(=O)NCC12CC3CC(C1)CC(CC(=O)O)(C3)C2 | > 2.1 | > 377 | 181 |
| CC1(c2ccccc2)CCN(CCC23CC4CC(CC(C4)C2)C3)CC1 | 32.1 | 90.7 | 2.82 |
| Oc1ccccc1C1(n2cncn2)C2CC3CC(C2)CC1C3 (centres undefined) | > 56.5 | > 339 | 5.99 |
| O/N=C1\C(=N\O)C2CC3CC(CC1C3)C2 | 142 | 480 | 3.38 |
| O=c1cc[nH]cc1C12CC3CC(CC(C3)C1)C2 | > 33.9 | > 436 | 12.9 |
| CC1=CCCN(CC(O)C23CC4CC(CC(C4)C2)C3)C1 (centres undefined) | 7.5 | 190 | 25.2 |
| O=C(C[n+]1ccccc1)C12CC3CC(CC(C3)C1)C2 | > 3.9 | > 297 | 75.9 |
| O=C(O)CC12CC3(O)CC(CC(=O)O)(C1)CC(C(=O)O)(C3)C2 | > 1.1 | > 320 | 282 |
| O=c1ccc(C23CC4CC(CC(C4)C2)C3)n[nH]1 | > 21.8 | > 434 | 20 |
| c1ccc2c[n+](CCC34CC5CC(CC(C5)C3)C4)ccc2c1 | 1.5 | 83 | 56.6 |

| Compound | selectivity ratio [1] | CC50 [2] [µM] | IC50 [3] [µM] |
| --- | --- | --- | --- |
| c1ccc2c(c1)Oc1ncnn1C21C2CC3CC(C2)CC1C3 (centres undefined) | > 54.7 | > 341 | 6.23 |
| O=c1[nH]cc(C23CC4CC(CC(C4)C2)C3)cc1C12CC3CC(CC(C3)C1)C2 | > 107 | > 275 | 2.56 |
| c1cc(OC23CC4CC(CC(C4)C2)C3)ccn1 | 7.8 | 290 | 37.4 |
| O=C(NCc1ccccc1)C1C(=O)C2CC3CC(C2)CC1C3 (centres undefined) | > 5.1 | > 336 | 66.6 |
| O/N=C1/CC2CC3CC(C2)CC1C3 | 20.6 | 148 | 7.21 |
| O=S1(=O)OC23CC4CC(CC(C4)C2)C[C@H]3[C@@H]1CN1CCOCC1 | > 4.7 | > 293 | 62.1 |
| N#CC(C#N)=C(/C=C/N1CCOCC1)C12CC3CC(CC(C3)C1)C2 | > 3.6 | > 309 | 86.4 |
| O=S1(=O)OC23CC4CC(CC(C4)C2)C[C@H]3[C@@H]1CNCc1ccccc1 | 1.7 | 96 | 56.5 |
| NCC12CC3CC(C1)CC(CC(=O)O)(C3)C2 | > 1 | > 385 | 382 |
| Cc1cccc[n+]1CC(=O)C12CC3CC(CC(C3)C1)C2 | > 3.6 | > 285 | 78.8 |
| OC(CN1CCCc2ccccc21)C12CC3CC(CC(C3)C1)C2 (centres undefined) | > 1.5 | > 321 | 213 |
| O=c1[nH][nH]c2c1C1CC3CC(CC2C3)C1 | > 12.2 | > 485 | 39.7 |
| CC1=NC(C)(C23CC4CC(CC(C4)C2)C3)CO1 (centres undefined) | 5 | 168 | 33.4 |
| CC(O)(CNC(=O)C(F)(F)F)C12CC3CC(CC(C3)C1)C2 (centres undefined) | 3.4 | 259 | 75.4 |
| CN(C)C1=NC2(c3ccccc3O1)C1CC3CC(C1)CC2C3 (centres undefined) | 1 | 72.1 | 70.9 |
| CC(=C(C#N)C#N)C12CC3CC(CC(C3)C1)C2 | 4.1 | 106 | 25.9 |
| C1CN[C@H]2C3CC4CC(CC(C4)[C@H]2N1)C3 | > 211 | > 358 | 1.69 |
| C1C2CC3CC1CC(C2)c1nc2c(nc13)C1CC3CC(C1)CC2C3 | > 3.1 | > 312 | 102 |
| O=C1/C(=N/O)C2CC3CC(CC1C3)C2 | > 2.9 | > 518 | 177 |
| O=C(O)C(Br)C12CC3CC(CC(O)(C3)C1)C2 (centres undefined) | > 1.8 | > 346 | 193 |
| C=C(COc1ccccc1C(=O)OCC)C12CC3CC(CC(C3)C1)C2 | 7.8 | 35.8 | 4.57 |
| CCN(CC)C[C@H]1O[C@@H]1C12CC3CC(CC(C3)C1)C2 (relative stereo) | 2.3 | 90.4 | 39.5 |
| O=C([C@@H]([C@H](C[N+](=O)[O-])c1ccccc1)S(=O)(=O)c1ccccc1)C12CC3CC(CC(C3)C1)C2 (relative stereo) | > 114 | > 215 | 1.89 |
| C1CN(C[C@H]2O[C@@H]2C23CC4CC(CC(C4)C2)C3)CCO1 (relative stereo) | 1.7 | 271 | 164 |
| CCN(CC)C[C@H](Cl)[C@H](O)C12CC3CC(CC(C3)C1)C2 (relative stereo) | 20.5 | 274 | 13.4 |
| COP(=O)(OC)[C@@H](C(=O)C12CC3CC(CC(C3)C1)C2)[C@H](C[N+](=O)[O-])c1ccccc1 (relative stereo) | > 21.7 | > 230 | 10.6 |
